Measured values published in patent US6756359B2, “C12 modified erythromycin macrolides and ketolides having antibacterial activity” (Chiron Corporation, priority 2001, dated 2004).
Converted amounts (≈) assume the structure as drawn.

Key:
Test in all cases: Antibacterial activity in vitro, MIC by broth microdilution
S. pneumoniae Stpn_49619 = format: cell-based, Streptococcus pneumoniae; conditions: Table 5, Strain ID F: S. pneumoniae Stpn_49619
How it was run: (§1)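 Broth microdilution per NCCLS in cation-adjusted Mueller-Hinton broth, final inoculum 3×10^5–7×10^5 CFU/mL, 2-fold serial drug dilutions, 35° C. for 18-24 hours. S. pneumoniae grown in CAMHB with 2-5% lysed horse blood under 5-10% CO2. MIC is the lowest concentration preventing visible growth.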

[1] = test system: S. pneumoniae Stpn_Mef S 3427; format: cell-based, Streptococcus pneumoniae; conditions: Table 5, Strain ID L: S. pneumoniae Stpn_Mef S 3427
How it was run: as §1

[2] = test system: S. pneumoniae Stpn_Erm 6849; format: cell-based, Streptococcus pneumoniae; conditions: Table 5, Strain ID I: S. pneumoniae Stpn_Erm 6849; unit assumed
How it was run: as §1

[3] = test system: S. pneumoniae Stpn_Erm S 4297; format: cell-based, Streptococcus pneumoniae; conditions: Table 5, Strain ID J: S. pneumoniae Stpn_Erm S 4297
How it was run: as §1

[4] = test system: S. pneumoniae Stpn_280-962 Pen S; format: cell-based, Streptococcus pneumoniae; conditions: Table 5, Strain ID H: S. pneumoniae Stpn_280-962
How it was run: as §1

[5] = test system: S. pneumoniae Stpn_Mef 5654; format: cell-based, Streptococcus pneumoniae; conditions: Table 5, Strain ID K: S. pneumoniae Stpn_Mef 5654; unit assumed
How it was run: as §1

[6] = test system: S. pneumoniae Stpn_297-749 Pen R; format: cell-based, Streptococcus pneumoniae; conditions: Table 5, Strain ID G: S. pneumoniae Stpn_297-749
How it was run: as §1

S. aureus Stau_29213 = format: cell-based; conditions: Table 5, Strain ID A: S. aureus Stau_29213; unit assumed
How it was run: as §1

[7] = test system: S. epidermidis Step_f50654 Pen S; format: cell-based; conditions: Table 5, Strain ID C: S. epidermidis Step_f50654; unit assumed
How it was run: as §1

S. pyogenes Stpy_8668 = format: cell-based; conditions: Table 5, Strain ID E: S. pyogenes Stpy_8668
How it was run: as §1

[8] = test system: S. epidermidis Step_14990; format: cell-based; conditions: Table 5, Strain ID B: S. epidermidis Step_14990; unit assumed
How it was run: as §1

E. faecalis Enfa_29212 = format: cell-based; conditions: Table 5, Strain ID D: E. faecalis Enfa_29212; unit assumed
How it was run: as §1

H. influenzae Hain_49247 = format: cell-based, Haemophilus influenzae; conditions: Table 5, Strain ID M: H. influenzae Hain_49247; unit assumed
How it was run: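 Visible-growth inhibition defined the MIC, obtained by NCCLS broth microdilution at 35° C. over 18-24 hours with a final inoculum of 3×10^5–7×10^5 CFU/mL.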

Compound | MIC (S. pneumoniae Stpn_49619) | MIC ([1]; unit assumed) [µg/mL] | MIC [2] [µg/mL] | MIC [3] | MIC [4] | MIC [5] [µg/mL] | MIC [6] | MIC (S. aureus Stau_29213) [µg/mL] | MIC [7] [µg/mL] | MIC (S. pyogenes Stpy_8668) | MIC [8] [µg/mL] | MIC (E. faecalis Enfa_29212) [µg/mL] | MIC (H. influenzae Hain_49247) [µg/mL] | MIC [1] | MIC ([3]; unit assumed) [µg/mL]
C=C[C@]12OC(=O)N(CCCCn3cnc(-c4cccnc4)c3)[C@@H]1[C@@H](C)C(=O)[C@H](C)C[C@@](C)(OC)[C@H](OC1O[C@H](C)C[C@H](N(C)C)[C@H]1O)[C@@H](C)C(=O)[C@@H](C)C(=O)O[C@@H]2CC (stereo partly drawn) [Example 48, (3aS,4R,7R,9R,10R,11R,13R,15R,15aR)-4-ethyl-11-methoxy-7,9,11,13,15-pentamethyl-2,6,8,14-tetraoxo-1-[4-(4-pyridin-3-yl-1H-imidazol-1-yl)butyl]-3a-vinyltetradecahydro-2H-oxacyclotetradecino[4,3-d][1,3]oxazol-10-yl 3,4,6-trideoxy-3-(dimethylamino)-D-xylo-hexopyranoside] | ≦0.05 | 0.1 (≈ 0.121 µM) | 0.4 (≈ 0.485 µM) | ≦0.05 | ≦0.05 | 0.78 (≈ 0.947 µM) | ≦0.05 | 0.2 (≈ 0.243 µM) | 0.2 (≈ 0.243 µM) | ≦0.05 | 0.2 (≈ 0.243 µM) | 0.1 (≈ 0.121 µM) | 3.13 (≈ 3.8 µM) | – | –
C=C[C@]12OC(=O)N(CCCCn3cnc(-c4cccnc4)c3)[C@@H]1[C@@H](C)C(=O)[C@H](C)C[C@](C)(OC)[C@H](OC1O[C@H](C)C[C@H](N(C)C)[C@H]1O)[C@@H](C)C(=O)[C@](C)(F)C(=O)O[C@@H]2CC (stereo partly drawn) [Example 49, (3aS,4R,7S,9R,10R,11S,13R,15R,15aR)-4-ethyl-7-fluoro-11-methoxy-7,9,11,13,15-pentamethyl-2,6,8,14-tetraoxo-1-[4-(4-pyridin-3-yl-1H-imidazol-1-yl)butyl]-3a-vinyltetradecahydro-2H-oxacyclotetradecino[4,3-d][1,3]oxazol-10-yl 3,4,6-trideoxy-3-(dimethylamino)-D-xylo-hexopyranoside] | ≦0.05 | – | 0.1 (≈ 0.119 µM) | ≦0.05 | ≦0.05 | 0.78 (≈ 0.926 µM) | ≦0.05 | 0.2 (≈ 0.238 µM) | 0.2 (≈ 0.238 µM) | ≦0.05 | 0.2 (≈ 0.238 µM) | 0.1 (≈ 0.119 µM) | 6.25 (≈ 7.42 µM) | ≦0.05 | –
C=C[C@]12OC(=O)N(CCCC(C)(C)n3cnc(-c4cccnc4)c3)[C@@H]1[C@@H](C)C(=O)[C@H](C)C[C@](C)(OC)[C@H](OC1O[C@H](C)C[C@H](N(C)C)[C@H]1O)[C@@H](C)C(=O)[C@@H](C)C(=O)O[C@@H]2CC (stereo partly drawn) [Example 50, (3aS,4R,7R,9R,10R,11S,13R,15R,15aR)-4-ethyl-11-methoxy-7,9,11,13,15-pentamethyl-1-[4-methyl-4-(4-pyridin-3-yl-1H-imidazol-1-yl)pentyl]-2,6,8,14-tetraoxo-3a-vinyltetradecahydro-2H-oxacyclotetradecino[4,3-d][1,3]oxazol-10-yl 3,4,6-trideoxy-3-(dimethylamino)-D-xylo-hexopyranoside] | ≦0.05 | 0.1 (≈ 0.117 µM) | 0.1 (≈ 0.117 µM) | ≦0.05 | ≦0.05 | 0.4 (≈ 0.469 µM) | ≦0.05 | 0.4 (≈ 0.469 µM) | 0.2 (≈ 0.235 µM) | ≦0.05 | 0.4 (≈ 0.469 µM) | 0.2 (≈ 0.235 µM) | 6.25 (≈ 7.33 µM) | – | –
C/C=C\[C@]12OC(=O)N(CCCCn3cnc(-c4cccnc4)c3)[C@@H]1[C@@H](C)C(=O)[C@H](C)C[C@](C)(OC)[C@H](O[C@@H]1O[C@H](C)C[C@H](N(C)C)[C@H]1O)[C@@H](C)C(=O)[C@](C)(F)C(=O)O[C@@H]2CC [Example 66, (3aS,4R,7S,9R,10R,11S,13R,15R,15aR)-4-ethyl-7-fluoro-11-methoxy-7,9,11,13,15-pentamethyl-2,6,8,14-tetraoxo-3a-[(1Z)-prop-1-enyl]-1-[4-(4-pyridin-3-yl-1H-imidazol-1-yl)butyl]tetradecahydro-2H-oxacyclotetradecino[4,3-d][1,3]oxazol-10-yl 3,4,6-trideoxy-3-(dimethylamino)-D-xylo-hexopyranoside] | ≦0.05 | 0.1 (≈ 0.117 µM) | 0.2 (≈ 0.234 µM) | – | ≦0.05 | 0.4 (≈ 0.467 µM) | ≦0.05 | 0.2 (≈ 0.234 µM) | 0.2 (≈ 0.234 µM) | ≦0.05 | 0.2 (≈ 0.234 µM) | 0.01 (≈ 0.0117 µM) | 6.25 (≈ 7.3 µM) | – | 0.1 (≈ 0.117 µM)
